Measurements taken from US9533987B2, “Heterocyclic derivates” (KALVISTA PHARMACEUTICALS LIMITED, priority 2013, dated 2017).

Assays:
Human plasma kallikrein = Human plasma kallikrein (Homo sapiens (Human), UniProt P03952); assay: Determination of the IC50 for plasma kallikrein (fluorogenic substrate H-DPro-Phe-Arg-AFC); format: biochemical; details: 37° C., read-out: IC50 (human PKaI)
Procedure: Determination of the IC50 for Plasma Kallikrein
(§1) Human plasma kallikrein (Protogen) was incubated at 37° C. with the fluorogenic substrate H-DPro-Phe-Arg-AFC and various concentrations of the test compound. Residual enzyme activity (initial rate of reaction) was determined by measuring the change in […] at 410 nm and the IC50 value for the test compound was determined.

Human KLK1 = Human KLK1 (Homo sapiens (Human), UniProt P06870); assay: Determination of the IC50 for KLK1 (fluorogenic substrate H-DVal-Leu-Arg-AFC); format: biochemical; details: 37° C.
Procedure: Determination of the IC50 for KLK1
as §1, with “KLK1 (Callbiochem)” for “plasma kallikrein (Protogen)”, “H-DVal-Leu-Arg-AFC” for “H-DPro-Phe-Arg-AFC”

Chain of Human plasma kallikrein (P03952 391-638): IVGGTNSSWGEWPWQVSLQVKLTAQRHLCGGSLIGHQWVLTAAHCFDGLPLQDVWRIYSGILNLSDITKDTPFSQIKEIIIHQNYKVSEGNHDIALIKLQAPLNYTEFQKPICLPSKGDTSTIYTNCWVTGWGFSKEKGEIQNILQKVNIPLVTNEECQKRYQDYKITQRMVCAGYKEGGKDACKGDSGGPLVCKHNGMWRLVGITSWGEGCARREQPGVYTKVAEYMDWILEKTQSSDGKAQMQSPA
Chain of Human plasma kallikrein (P03952 20-390 partner): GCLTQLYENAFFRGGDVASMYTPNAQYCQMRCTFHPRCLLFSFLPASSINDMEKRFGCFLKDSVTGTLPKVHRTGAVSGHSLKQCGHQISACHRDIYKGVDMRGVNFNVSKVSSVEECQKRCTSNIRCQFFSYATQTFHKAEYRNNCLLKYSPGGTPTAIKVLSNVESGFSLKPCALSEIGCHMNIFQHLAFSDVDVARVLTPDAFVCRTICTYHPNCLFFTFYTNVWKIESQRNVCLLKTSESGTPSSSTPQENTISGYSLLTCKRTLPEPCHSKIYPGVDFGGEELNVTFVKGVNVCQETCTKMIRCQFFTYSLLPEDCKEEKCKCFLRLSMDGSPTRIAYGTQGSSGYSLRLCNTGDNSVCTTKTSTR
Chain of Human KLK1 (P06870 25-262): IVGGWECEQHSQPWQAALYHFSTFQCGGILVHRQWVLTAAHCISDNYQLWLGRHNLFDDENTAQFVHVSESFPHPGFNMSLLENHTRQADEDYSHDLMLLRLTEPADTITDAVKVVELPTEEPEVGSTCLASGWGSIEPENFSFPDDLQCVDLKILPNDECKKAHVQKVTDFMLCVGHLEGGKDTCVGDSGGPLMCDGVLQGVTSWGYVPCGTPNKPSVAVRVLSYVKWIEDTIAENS

IC50 (Human plasma kallikrein) | IC50 (Human KLK1) | Structure (SMILES)
0.062 µM | > 10 µM | Cc1cnn(Cc2ccc(Cn3cc(C(=O)NCc4cnc5[nH]ccc5c4)c(C(F)(F)F)n3)cc2)c1 [Example 121, 1-[4-(4-Methyl-pyrazol-1-ylmethyl)-benzyl]-3-trifluoromethyl-1H-pyrazole-4-carboxylic acid (1H-pyrrolo[2,3-b]pyridin-5-ylmethyl)-amide]
0.00538 µM | > 10 µM | O=C(NCc1cnc2[nH]ccc2c1)c1cn(Cc2ccc(Cn3ccccc3=O)cc2)nc1C(F)(F)F [Example 7, 1-[4-(2-Oxo-2H-pyridin-1-ylmethyl)-benzyl]-3-trifluoromethyl-1H-pyrazole-4-carboxylic acid (1H-pyrrolo[2,3-b]pyridin-5-ylmethyl)-amide]
0.112 µM | 9.63 µM | COc1cc(Cn2cc(C(=O)NCc3ccc4c(N)nccc4c3)c(C3CC3)n2)cc(N2CCCC2)n1 [Example 88, 3-Cyclopropyl-1-(2-methoxy-6-pyrrolidin-1-yl-pyridin-4-ylmethyl)-1H-pyrazole-4-carboxylic acid (1-amino-isoquinolin-6-ylmethyl)-amide]
0.537 µM | > 10 µM | Cc1cnn(Cc2ccc(Cn3cc(C(=O)NCc4n[nH]c5ccc(Cl)cc45)c(C(F)(F)F)n3)cc2)c1 [Example 127, 1-[4-(4-Methyl-pyrazol-1-ylmethyl)-benzyl]-3-trifluoromethyl-1H-pyrazole-4-carboxylic acid (5-chloro-1H-indazol-3-ylmethyl)-amide]
0.101 µM | > 10 µM | Cc1cnn(Cc2ccc(Cn3cc(C(=O)NCc4c(C)nc5[nH]ccc5c4C)c(C4CC4)n3)cc2)c1 [Example 122, 3-Cyclopropyl-1-[4-(4-methyl-pyrazol-1-ylmethyl)-benzyl]-1H-pyrazole-4-carboxylic acid (4,6-dimethyl-1H-pyrrolo[2,3-b]pyridin-5-ylmethyl)-amide]
0.304 µM | 1.21 µM | O=C(NCc1cnc2[nH]ccc2c1)c1cn(Cc2ccc(N3CCCC3)nc2)nc1C(F)(F)F [Example 114, 1-(6-Pyrrolidin-1-yl-pyridin-3-ylmethyl)-3-trifluoromethyl-1H-pyrazole-4-carboxylic acid (1H-pyrrolo[2,3-b]pyridin-5-ylmethyl)-amide]
0.281 µM | > 10 µM | CC(C)Oc1cc(Cn2cc(C(=O)NCc3ccc4c(N)nccc4c3)c(C(F)(F)F)n2)ccn1 [Example 66, 1-(2-Isopropoxy-pyridin-4-ylmethyl)-3-trifluoromethyl-1H-pyrazole-4-carboxylic acid (1-amino-isoquinolin-6-ylmethyl)-amide]
0.0149 µM | 0.96 µM | Nc1nccc2cc(CNC(=O)c3cn(Cc4cnc(N5CCCC5)cn4)nc3C(F)(F)F)ccc12 [Example 65, 1-(5-Pyrrolidin-1-yl-pyrazin-2-ylmethyl)-3-trifluoromethyl-1H-pyrazole-4-carboxylic acid (1-amino-isoquinolin-6-ylmethyl)-amide]
0.00731 µM | 2.21 µM | COc1cc(Cn2cc(C(=O)NCc3ccc4c(N)nccc4c3)c(C3CC3)n2)cnc1N1CCCC1 [Example 25, 3-Cyclopropyl-1-(5-methoxy-6-pyrrolidin-1-yl-pyridin-3-ylmethyl)-1H-pyrazole-4-carboxylic acid (1-amino-isoquinolin-6-ylmethyl)-amide]
0.0636 µM | > 10 µM | CCCOc1ccc(Cn2cc(C(=O)NCc3ccc4c(N)nccc4c3)c(C(F)(F)F)n2)cn1 [Example 71, 1-(6-Propoxy-pyridin-3-ylmethyl)-3-trifluoromethyl-1H-pyrazole-4-carboxylic acid (1-amino-isoquinolin-6-ylmethyl)-amide]
0.0561 µM | 8.79 µM | COCCN(C)c1ccc(Cn2cc(C(=O)NCc3ccc4c(N)nccc4c3)c(C3CC3)n2)cn1 [Example 86, 3-Cyclopropyl-1-{6-[(2-methoxy-ethyl)-methyl-amino]-pyridin-3-ylmethyl}-1H-pyrazole-4-carboxylic acid (1-amino-isoquinolin-6-ylmethyl)-amide]
0.0212 µM | 4.71 µM | Cc1cnn(Cc2nc(Cn3cc(C(=O)NCc4ccc5c(N)nccc5c4)c(C(F)(F)F)n3)cs2)c1 [Example 82, 1-[2-(4-Methyl-pyrazol-1-ylmethyl)-thiazol-4-ylmethyl]-3-trifluoromethyl-1H-pyrazole-4-carboxylic acid (1-amino-isoquinolin-6-ylmethyl)-amide]
0.00485 µM | 9.05 µM | Cc1cnn(Cc2ccc(Cn3cc(C(=O)NCc4ccc5c(N)nccc5c4)c(-c4ccsc4)n3)cc2)c1 [Example 42, 1-[4-(4-Methyl-pyrazol-1-ylmethyl)-benzyl]-3-thiophen-3-yl-1H-pyrazole-4-carboxylic acid (1-amino-isoquinolin-6-ylmethyl)-amide]
0.00372 µM | > 10 µM | Cc1nc2[nH]ccc2c(C)c1CNC(=O)c1cn(Cc2ccc(Cn3ccccc3=O)cc2)nc1C(F)(F)F [Example 8, 1-[4-(2-Oxo-2H-pyridin-1-ylmethyl)-benzyl]-3-trifluoromethyl-1H-pyrazole-4-carboxylic acid (4,6-dimethyl-1H-pyrrolo[2,3-b]pyridin-5-ylmethyl)-amide]
0.00646 µM | > 10 µM | Cc1cnn(Cc2ccc(Cn3cc(C(=O)NCc4ccc5c(N)nccc5c4)c(N4CCOCC4)n3)cc2)c1 [Example 21, 1-[4-(4-Methyl-pyrazol-1-ylmethyl)-benzyl]-3-morpholin-4-yl-1H-pyrazole-4-carboxylic acid (1-amino-isoquinolin-6-ylmethyl)-amide]
0.00089 µM | > 10 µM | Cc1cnn(Cc2ccc(Cn3cc(C(=O)NCc4ccc5c(N)nccc5c4)c(-c4c(C)noc4C)n3)cc2)c1 [Example 20, 3-(3,5-Dimethyl-isoxazol-4-yl)-1-[4-(4-methyl-pyrazol-1-ylmethyl)-benzyl]-1H-pyrazole-4-carboxylic acid (1-amino-isoquinolin-6-ylmethyl)-amide]
0.00229 µM | > 10 µM | Nc1nccc2cc(CNC(=O)c3cn(Cc4ccc(Cn5cccn5)nc4)nc3C(F)(F)F)ccc12 [Example 79, 1-(6-Pyrazol-1-ylmethyl-pyridin-3-ylmethyl)-3-trifluoromethyl-1H-pyrazole-4-carboxylic acid (1-amino-isoquinolin-6-ylmethyl)-amide]
4.01 µM | > 10 µM | Cc1cnn(Cc2ccc(Cn3cc(C(=O)NCc4ccnc5[nH]ccc45)c(C(F)(F)F)n3)cc2)c1 [Example 125, 1-[4-(4-Methyl-pyrazol-1-ylmethyl)-benzyl]-3-trifluoromethyl-1H-pyrazole-4-carboxylic acid (1H-pyrrolo[2,3-b]pyridin-4-ylmethyl)-amide]
0.034 µM | 9.64 µM | CCN(CC)c1ncc(Cn2cc(C(=O)NCc3ccc4c(N)nccc4c3)c(C3CC3)n2)cc1F [Example 95, 3-Cyclopropyl-1-(6-diethylamino-5-fluoro-pyridin-3-ylmethyl)-1H-pyrazole-4-carboxylic acid (1-amino-isoquinolin-6-ylmethyl)-amide]
0.0669 µM | 4.91 µM | Nc1nccc2cc(CNC(=O)c3cn(Cc4ccc(N5CC[C@@H](CO)C5)nc4)nc3C(F)(F)F)ccc12 [Example 70, 1-[6-((R)-3-Hydroxymethyl-pyrrolidin-1-yl)-pyridin-3-ylmethyl]-3-trifluoromethyl-1H-pyrazole-4-carboxylic acid (1-amino-isoquinolin-6-ylmethyl)-amide]
0.00092 µM | > 1 µM | Nc1nccc2cc(CNC(=O)c3cn(Cc4ccc(Cn5cccn5)cc4)nc3C(F)(F)F)ccc12 [Example 76, 1-(4-Pyrazol-1-ylmethyl-benzyl)-3-trifluoromethyl-1H-pyrazole-4-carboxylic acid (1-amino-isoquinolin-6-ylmethyl)-amide]
0.00074 µM | 5.73 µM | Cc1cnn(Cc2ccc(Cn3cc(C(=O)NCc4ccc5c(N)nccc5c4)c(C#N)n3)cc2)c1 [Example 16, 3-Cyano-1-[4-(4-methyl-pyrazol-1-ylmethyl)-benzyl]-1H-pyrazole-4-carboxylic acid (1-amino-isoquinolin-6-ylmethyl)-amide]
0.0185 µM | 3.01 µM | Nc1nccc2cc(CNC(=O)c3cn(Cc4cnc(N5CCCC5)c(Cl)c4)nc3C3CC3)ccc12 [Example 97, 1-(5-Chloro-6-pyrrolidin-1-yl-pyridin-3-ylmethyl)-3-cyclopropyl-1H-pyrazole-4-carboxylic acid (1-amino-isoquinolin-6-ylmethyl)-amide]
0.00214 µM | > 10 µM | O=C(NCc1n[nH]c2ccc(Cl)cc12)c1cn(Cc2ccc(Cn3ccccc3=O)cc2)nc1C(F)(F)F [Example 129, 1-[4-(2-Oxo-2H-pyridin-1-ylmethyl)-benzyl]-3-trifluoromethyl-1H-pyrazole-4-carboxylic acid (5-chloro-1H-indazol-3-ylmethyl)-amide]
0.00117 µM | 6.64 µM | Cc1cnn(Cc2ccc(Cn3cc(C(=O)NCc4ccc5c(N)nccc5c4)c(CO)n3)cc2)c1 [Example 15, 3-Hydroxymethyl-1-[4-(4-methyl-pyrazol-1-ylmethyl)-benzyl]-1H-pyrazole-4-carboxylic acid (1-amino-isoquinolin-6-ylmethyl)-amide]

Structure (SMILES) | IC50 (Human plasma kallikrein) | IC50 (Human KLK1)
Cc1cnn(Cc2ccc(Cn3cc(C(=O)NCc4ccc5c(N)nccc5c4)cn3)cc2)c1 [Example 31, 1-[4-(4-Methyl-pyrazol-1-ylmethyl)-benzyl]-1H-pyrazole-4-carboxylic acid (1-amino-isoquinolin-6-ylmethyl)-amide] | 0.002 µM | > 10 µM
